How the values were obtained:
[1] = system: HT29-LUC radioresistant colorectal adenocarcinoma cells; assay: Seahorse OCR (oxidative phosphorylation) in HT29-LUC; type: cell-based, human; conditions: 10 μM, 24 hours, p<0.01
Description: HT29-LUC radioresistant colorectal adenocarcinoma cells were used to test the effects of the compound 4 on oxidative phosphorylation. Cells were maintained in McCoy's 5A media supplemented with 10% foetal calf serum. A total of 20,000 cells, in 100 μl media, were seeded per well in 24 well plates and left to incubate for 24 hours, with an additional 150 μl media added after 5 hours. The media was replaced with solutions containing 10 μM of compound 4 or the equivalent volume of DMSO vehicle control. After 24 hours of treatment, media was replaced with modified DMEM supplemented with 0.5 mM glucose. Rates of oxidative phosphorylation were determined using Seahorse Biosciences metabolism technology. The media was disposed and the cells washed with PBS. The cells were fixed with 1% glutaraldehyde for 15 minutes and then stained with crystal violet for 30 minutes. The plates were blotted and dried overnight. The cells were resuspended with 1% TritonX-100 and shaken for 15 minutes. The absorbance was read on a spectrophotometer at 595 nm Rates of oxidative phosphorylation were then normalised to cell number.

[2] = system: MMS19; assay: qPCR DNA repair gene expression in OE33P: MMS19; type: cell-based, human; conditions: 10 μM, 24 hours, p<0.01
Description: OE33P radiosensitive oesophageal adenocarcinoma cells and OE33R radioresistant oesophageal adenocarcinoma cells were used to test the effects of the compound 4 on DNA repair gene expression. Cells were maintained in RPMI media supplemented with 10% foetal calf serum, penicillin (100 U/ml) and streptomycin (100 μg/ml). A total of 300,000 cells, in 2 ml media, were seeded per well in 6 well plates and left to incubate for 24 hours. The media was replaced with solutions containing 10 μM of compound 4 or the equivalent volume of DMSO vehicle control. After 24 hours of treatment, RNA was extracted from the cells and converted to cDNA. qPCR was then conducted and expression of MMS19, SMUG1 PARP1 and MLH1 was quantified, […]

Cl.Oc1ccccc1/C=C/c1cnccn1 [Compound 4, (E)-2-[2-(Pyrazin-2-yl)vinyl]phenol hydrochloride]
oxygen consumption rate (OCR), a measure of oxidative phosphorylation [1]: significantly reduces oxygen consumption rate | expression of MMS19 (qPCR) [2]: significantly reduces the expression of MMS19

From patent US9975860B2, “Anti-angiogenic compounds” (UNIVERSITY COLLEGE DUBLIN—NATIONAL UNIVERSITY OF IRELAND, …, priority 2014, dated 2018)
